What was measured:
ATR enzyme = target: T1, ATR enzyme (Homo sapiens, UniProt Q13535); test: Inhibitory effect on ATR enzyme (phospho-p53 HTRF); assay type: biochemical; conditions: for IC50: 1 nM ATR enzyme, 50 nM P53 protein, 7.435 μM ATP, 2 h room temperature, read-out: IC50 for ATR enzyme inhibition; for Maximum inhibition (%) of ATR enzyme: compound serially 3-fold diluted from 1 μM
T1 construct: purchased Eurofins Pharma Discovery Services 14-953-M
Source text: The following method was used to determine the inhibitory effect of the compounds disclosed herein on ATR enzyme. The experimental methodology is briefly described as follows:
• 1. ATR enzyme (Eurofins Pharma Discovery Services, 14-953-M) • 2. GST-tag P53 protein (Eurofins Pharma Discovery Services, 14-952-M) • 3. 384-well plate (Thermo Scientific, 267462) • 4. U-shaped bottom 96-well plate (Corning, 3795) • 5. MAb Anti-phospho p53-Eu cryptate (Cisbio, 61P08KAE) • 6. MAb Anti GST-d2 (Cisbio, 61GSTDLF) • 7. ATP solution (Promega, V916B) • 8. EDTA (Thermo Scientific, AM9260G) • 9. HEPES (Gibco, 15630-080) • 10. Microplate reader (BMG, PHERAsta)
1 nM ATR enzyme, 50 nM P53 protein, 7.435 μM ATP and small molecule compounds of different concentrations (serially 3-fold diluted from 1 μM to the 11th concentration) were mixed and incubated at room temperature for 2 h. A terminating buffer (12.5 mM HEPES, 250 mM EDTA) was added. The mixture was well mixed before 0.42 ng/well of mAb anti-phospho p53-Eu cryptate and 25 ng/well of mAb anti GST-d2 were added. The mixture was incubated overnight at room temperature, and the fluorescence signals at 620 nm and 665 nm were detected using a PHERAstar system. Data were processed using GraphPad software.

LoVo cells = test: LoVo cell proliferation assay (intracellular ATP content, CellTiter-Glo); assay type: cell-based; conditions: LoVo human colon cancer cells, 3 days incubation; for IC50: 72 h, read-out: IC50 for LoVo cell proliferation inhibition
Source text: The following method evaluates the inhibitory effect of the compounds disclosed herein on the proliferation of LoVo cells via IC50 by measuring the intracellular ATP content. The experimental methodology is briefly described as follows:
• 1. LoVo, human colon cancer cells (Cobioer, Nanjing, CBP60032) • 2. Fetal bovine serum (FBS) (Gibco, 10091-148) • 3. F-12K Medium (Gibco, 21127030) • 4. CellTite-Glo reagent (Promega, G7573) • 5. 96-well cell culture plate (Corning, 3903) • 6. Pancreatin (Invitrogen, 25200-072) • 7. Microplate reader (BMG, PHERAstar) • 8. Cell counter (Countstar, Shanghai, IC1000)
LoVo cells were cultured in an F-12K culture medium containing 10% of FBS, and passaged twice or thrice a week in a passage ratio of 1:3 or 1:5. During passage, cells were digested by pancreatin, transferred to a centrifuge tube, and centrifuged for 3 min at 1200 rpm. The supernatant was discarded, and fresh culture medium was added to resuspend the cells. To a 96-well cell culture plate, 90 μL of the cell suspension was added at a density of 3.88×10^4 cells/mL. To peripheral wells of the 96-well plate, only 100 μL of complete medium was added. The plate was incubated in an incubator for 24 h (37° C., 5% CO2).
The test samples were diluted to 2 mM in DMSO and serially 3-fold diluted to the 10th concentration. Blank and control wells were set. 5 μL of the serially diluted test compound solutions was added to 95 μL of fresh medium. 10 μL of the medium containing the compound above was added to the plate. The plate was incubated in an incubator for 3 days (37° C., 5% CO2). 50 μL of CellTiter-Glo reagent was added into each well of the 96-well cell culture plate. The plate was let stand for 5-10 min in the dark at room temperature. The chemiluminescence signals were read by a PHERAstar system, and the data were processed by GraphPad software.

[1] = Pharmacokinetic study in rats after intragastric administration; assay type: in vivo; conditions: both sexes, Sprague-Dawley (SD), rat, plasma, po, 2 mg/kg; for Vd/F: read-out: Apparent volume of distribution Vz/F; for AUC: read-out: Area under curve AUC; for CL/F: read-out: Clearance CL/F; for half-life: read-out: Half life T1/2 (converted); for Cmax: read-out: Plasma concentration Cmax; for MRT: read-out: Retention time MRT
Method: The plasma concentration of the compounds of Examples 1, 2 and 3 in rats after intragastric administration were measured by LC/MS/MS. The pharmacokinetic performance in rats of the compounds disclosed herein was studied and their pharmacokinetic profile was evaluated.
The compounds of Examples 1, 2 and 3.
12 healthy adult SD rats (half male and half female; purchased from Vital River) were evenly divided into 3 groups of 4.
A certain amount of the compound was added to a mixed solvent containing 5% of DMSO, 5% of Tween 80 and 90% of normal saline to obtain a colorless and clear solution.
SD rats were intragastrically administered with the compounds after fasting overnight, at a dose of 2 mg/kg and a volume of 10.0 mL/kg.
Rats were intragastrically administered with the compounds of Examples 1, 2 and 3. 0.2 mL of blood was collected from the orbit pre-dose and at 0.25, 0.5, 1.0, 2.0, 4.0, 6.0, 8.0, 11.0 and 24.0 h post-does. The blood samples were transferred to EDTA-K2kk anticoagulation vacutainers, centrifuged at 4° C. and 11000 rpm for 5 min to separate plasma. The plasma samples were stored at −20° C. The mice were fed 2 h after administration.
The plasma concentration of the compounds in rats after intragastric administration was determined: 25 μL of rat plasma at each time point post-dose was mixed with 50 μL of internal standard and 175 μL of acetonitrile; the mixture was vortexed 5 min, and centrifuged for 10 min at 4000 rpm. 1 μL of supernatant was taken for LC/MS/MS analysis.

T1 sequence (Q13535 whole entry): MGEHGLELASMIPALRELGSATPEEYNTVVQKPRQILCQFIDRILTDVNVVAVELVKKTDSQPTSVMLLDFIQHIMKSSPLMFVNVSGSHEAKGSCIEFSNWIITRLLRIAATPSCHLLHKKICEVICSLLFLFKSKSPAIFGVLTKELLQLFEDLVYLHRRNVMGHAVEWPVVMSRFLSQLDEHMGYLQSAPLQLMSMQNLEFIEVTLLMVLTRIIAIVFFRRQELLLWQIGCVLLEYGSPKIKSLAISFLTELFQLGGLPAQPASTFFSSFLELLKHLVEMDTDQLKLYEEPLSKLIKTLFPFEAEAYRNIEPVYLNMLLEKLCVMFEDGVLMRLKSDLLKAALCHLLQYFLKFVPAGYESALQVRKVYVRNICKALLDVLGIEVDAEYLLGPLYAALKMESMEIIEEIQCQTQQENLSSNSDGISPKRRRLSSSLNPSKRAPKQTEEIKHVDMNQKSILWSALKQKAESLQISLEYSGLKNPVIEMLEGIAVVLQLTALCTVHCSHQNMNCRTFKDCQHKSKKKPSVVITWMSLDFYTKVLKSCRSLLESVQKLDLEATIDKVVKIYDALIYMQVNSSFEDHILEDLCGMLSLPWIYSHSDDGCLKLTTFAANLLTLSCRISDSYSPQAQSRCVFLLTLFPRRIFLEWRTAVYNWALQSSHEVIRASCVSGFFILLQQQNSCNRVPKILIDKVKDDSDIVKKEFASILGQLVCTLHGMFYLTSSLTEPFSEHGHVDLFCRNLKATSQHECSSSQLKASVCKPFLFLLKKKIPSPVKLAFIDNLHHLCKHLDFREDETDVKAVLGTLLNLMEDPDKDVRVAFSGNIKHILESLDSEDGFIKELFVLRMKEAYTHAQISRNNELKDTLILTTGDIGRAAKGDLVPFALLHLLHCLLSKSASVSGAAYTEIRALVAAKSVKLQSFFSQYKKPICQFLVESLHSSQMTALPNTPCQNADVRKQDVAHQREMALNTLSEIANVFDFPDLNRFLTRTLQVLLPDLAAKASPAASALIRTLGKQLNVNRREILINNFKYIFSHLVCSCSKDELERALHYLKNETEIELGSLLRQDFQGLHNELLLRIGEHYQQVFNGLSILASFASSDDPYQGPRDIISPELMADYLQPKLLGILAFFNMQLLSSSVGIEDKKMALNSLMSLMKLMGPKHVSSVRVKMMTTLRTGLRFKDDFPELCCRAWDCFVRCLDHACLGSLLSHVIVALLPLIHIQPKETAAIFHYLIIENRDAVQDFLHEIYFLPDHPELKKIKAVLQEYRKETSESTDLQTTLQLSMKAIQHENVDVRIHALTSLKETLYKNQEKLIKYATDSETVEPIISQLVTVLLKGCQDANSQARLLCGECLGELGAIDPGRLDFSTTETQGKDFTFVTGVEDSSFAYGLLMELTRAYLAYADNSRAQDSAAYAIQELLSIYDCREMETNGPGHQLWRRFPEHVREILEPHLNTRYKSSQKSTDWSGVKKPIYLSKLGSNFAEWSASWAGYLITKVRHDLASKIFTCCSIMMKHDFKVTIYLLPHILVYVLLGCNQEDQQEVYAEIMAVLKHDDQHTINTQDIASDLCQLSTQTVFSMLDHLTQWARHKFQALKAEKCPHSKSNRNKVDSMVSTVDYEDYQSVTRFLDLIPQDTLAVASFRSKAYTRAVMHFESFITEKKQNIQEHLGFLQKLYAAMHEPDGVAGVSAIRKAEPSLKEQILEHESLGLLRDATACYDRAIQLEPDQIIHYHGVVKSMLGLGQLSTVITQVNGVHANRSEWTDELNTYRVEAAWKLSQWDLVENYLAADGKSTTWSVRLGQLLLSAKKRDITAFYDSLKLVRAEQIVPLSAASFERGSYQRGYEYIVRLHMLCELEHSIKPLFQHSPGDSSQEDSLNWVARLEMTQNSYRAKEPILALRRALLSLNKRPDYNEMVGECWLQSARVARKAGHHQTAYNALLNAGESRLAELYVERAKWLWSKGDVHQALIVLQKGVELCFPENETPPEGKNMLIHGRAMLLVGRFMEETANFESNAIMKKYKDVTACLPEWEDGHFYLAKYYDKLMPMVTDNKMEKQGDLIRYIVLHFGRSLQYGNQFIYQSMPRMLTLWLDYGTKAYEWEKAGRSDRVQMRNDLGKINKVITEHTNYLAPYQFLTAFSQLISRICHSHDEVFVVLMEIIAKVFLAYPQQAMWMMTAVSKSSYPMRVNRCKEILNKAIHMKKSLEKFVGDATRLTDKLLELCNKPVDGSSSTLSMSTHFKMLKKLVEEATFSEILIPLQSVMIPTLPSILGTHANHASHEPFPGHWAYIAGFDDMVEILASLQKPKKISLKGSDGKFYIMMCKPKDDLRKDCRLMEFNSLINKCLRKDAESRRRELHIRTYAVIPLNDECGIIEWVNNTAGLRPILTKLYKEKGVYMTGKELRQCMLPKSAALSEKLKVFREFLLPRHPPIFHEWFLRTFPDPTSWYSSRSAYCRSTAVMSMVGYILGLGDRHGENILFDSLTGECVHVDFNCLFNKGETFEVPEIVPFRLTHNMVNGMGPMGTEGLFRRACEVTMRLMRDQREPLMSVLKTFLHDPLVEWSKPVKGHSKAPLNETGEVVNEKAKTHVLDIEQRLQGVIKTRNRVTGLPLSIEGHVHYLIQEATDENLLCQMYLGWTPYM
T1 sequence (Q8WXE1 whole entry partner): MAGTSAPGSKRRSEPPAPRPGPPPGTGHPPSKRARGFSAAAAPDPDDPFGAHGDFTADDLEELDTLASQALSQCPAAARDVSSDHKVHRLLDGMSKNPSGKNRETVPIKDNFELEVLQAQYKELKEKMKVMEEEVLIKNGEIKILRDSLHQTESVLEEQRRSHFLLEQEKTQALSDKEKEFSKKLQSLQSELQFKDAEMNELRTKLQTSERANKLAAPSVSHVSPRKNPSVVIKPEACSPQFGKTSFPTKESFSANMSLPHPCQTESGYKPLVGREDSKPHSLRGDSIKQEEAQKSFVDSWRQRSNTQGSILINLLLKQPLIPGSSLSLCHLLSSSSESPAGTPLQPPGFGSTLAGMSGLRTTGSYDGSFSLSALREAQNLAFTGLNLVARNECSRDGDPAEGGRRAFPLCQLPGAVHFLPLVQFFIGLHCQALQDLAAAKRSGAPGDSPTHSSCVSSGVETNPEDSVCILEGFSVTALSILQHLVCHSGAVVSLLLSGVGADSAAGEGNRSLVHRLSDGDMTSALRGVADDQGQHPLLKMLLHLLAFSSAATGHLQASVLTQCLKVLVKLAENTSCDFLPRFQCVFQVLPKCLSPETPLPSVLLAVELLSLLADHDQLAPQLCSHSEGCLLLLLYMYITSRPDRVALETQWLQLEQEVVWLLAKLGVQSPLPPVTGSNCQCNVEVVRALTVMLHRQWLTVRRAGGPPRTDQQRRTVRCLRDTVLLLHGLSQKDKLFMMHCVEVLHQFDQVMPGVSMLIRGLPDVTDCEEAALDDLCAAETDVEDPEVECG

| IC50 (ATR enzyme) [nM] | Maximum inhibition (%) of ATR enzyme (ATR enzyme) [%] | IC50 (LoVo cells) [nM] | Vd/F [1] [L/kg] | AUC [1] [ng·h/mL] | CL/F [1] [mL/min/kg] | half-life [1] [h] | Cmax [1] [ng/mL] | MRT [1] [h] | SMILES | Maximum inhibition (%) of LoVo cell proliferation (LoVo cells) [%] |
| --- | --- | --- | --- | --- | --- | --- | --- | --- | --- | --- |
| 15 | 100 | 124 | 2.44 ± 0.448 | 2710 ± 807 | 13.1 ± 3.7 | 2.23 ± 0.53 | 674 ± 86.7 | 3.26 ± 0.67 | C[C@@H]1COCCN1c1cc(-c2ccnn2C)c2c(n1)c(-c1cc[nH]n1)nn2C [Example 3, (R)-3-methyl-4-(1-methyl-7-(1-methyl-1H-pyrazol-5-yl)-3-(1H-pyrazol-3-yl)-1H-pyrazolo[4,3-b]pyridin-5-yl) morpholine] | 87 |
| 3 | 100 | 55 | – | – | – | – | – | – | C[C@@H]1COCCN1c1cc(C(C)(C)C#N)c2[nH]nc(-c3cc[nH]n3)c2n1 [Example 6, (R)-2-methyl-2-(5-(3-methylmorpholinyl)-3-(1H-pyrazol-3-yl)-1H-pyrazolo[4,3-b]pyridin-7-yl)propanenitrile] | 95 |
| 73 | 97 | 316 | – | – | – | – | – | – | C[C@@H]1COCCN1c1cc(C(C)(C)O)c2c(n1)c(-c1cc[nH]n1)nn2C [Comparative Example 1, (R)-2-(1-methyl-5-(3-methylmorpholinyl)-3-(1H-pyrazol-3-yl)-1H-pyrazolo[4,3-b]pyridin-7-yl)propan-2-ol, reference compound] | 92 |
| 8 | 100 | 100 | – | – | – | – | – | – | CCn1nc(-c2cc[nH]n2)c2nc(N3CCOC[C@H]3C)cc(C3(C#N)CC3)c21 [Example 5, (R)-1-(1-ethyl-5-(3-methylmorpholinyl)-3-(1H-pyrazol-3-yl)-1H-pyrazolo[4,3-b]pyridin-7-yl) cyclopropanenitrile] | 93 |
| 9 | 100 | 75 | 7.8 ± 6.13 | 1590 ± 1390 | 51.7 ± 49.5 | 2.57 ± 1.39 | 309 ± 219 | 3.99 ± 2.26 | C[C@@H]1COCCN1c1cc(C2(C#N)CC2)c2c(n1)c(-c1cc[nH]n1)nn2C [Example 2, (R)-1-(1-methyl-5-(3-methylmorpholinyl)-3-(1H-pyrazol-3-yl)-1H-pyrazolo[4,3-b]pyridin-7-yl)cyclopropanenitrile] | 90 |
| – | – | 43 | – | – | – | – | – | – | C[C@@H]1COCCN1c1cc(C(C)(C)C#N)c2c(n1)c(-c1cc[nH]n1)nn2C [Example 1, (R)-2-methyl-2-(1-methyl-5-(3-methylmorpholinyl)-3-(1H-pyrazol-3-yl)-1H-pyrazolo[4,3-b]pyridin-7-yl)propanenitrile] | – |
| 6 | 100 | 64 | – | – | – | – | – | – | CCn1nc(-c2cc[nH]n2)c2nc(N3CCOC[C@H]3C)cc(C(C)(C)C#N)c21 [Example 4, (R)-2-(1-ethyl-5-(3-methylmorpholinyl)-3-(1H-pyrazol-3-yl)-1H-pyrazolo[4,3-b]pyridin-7-yl)-2-methylpropanenitrile] | 89 |
